{"source": "patent US20230201341A1", "about": "“TLR3 AND TLR9 AGONISTS AS VACCINE ADJUVANTS FOR ANTI-CANCER DNA VACCINES” (WISCONSIN ALUMNI RESEARCH FOUNDATION, priority 2021, published 2023)", "test_system": "TRAMP-C1 tumor cells", "assay": "Tumor study with TRAMP-C1 tumors: DNA vaccine pTVG-AR co-delivered with TLR agonists", "format": "in vivo, C57BL/6 mice", "conditions": "administered with a DNA cancer vaccine in mice; compared with vaccine alone", "text": "FIG. 6. Combinations of TLR agonists improve the anti-tumor efficacy of a DNA vaccine in a prostate cancer tumor model. C57BL/6 mice were implanted subcutaneously with TRAMP-C1 tumor cells. Mice were immunized intradermally weekly with control vector (pTVG4) or DNA encoding AR ligand-binding domain (pTVG-AR) and delivered alone or co-delivered with TLR1/2, TLR3 and/or TLR9 agonists. (A) shown are the growth curves for each group (n=6 animals per group). (B) Survival plots using the time to death or when tumors reached 2 cm3 in size, whichever occurred first. (C) Tumors obtained at necropsy were evaluated for the percentage of infiltrating CD45^+ cells, CD8^+ T cells among CD45^+ cells, and Treg cells (CD25^+Foxp3^+) among CD4^+CD45^+ cells. (D) Tumor-infiltrating CD8+ T cells were evaluated for 4-1BB and PD-1 expression by flow cytometry.\nFIG. 11. Combinations of TLR agonists improve the anti-tumor efficacy of a DNA vaccine in a prostate cancer tumor model. […]\nSix- to ten-week-old male C57BL/6 mice were inoculated with 1×10^6 TRAMP-C1 cells, administered subcutaneously with matrigel. […] TLR agonist(s) were co-administered with the vaccine intradermally, and tumor volumes were measured as described above. Obtained tumors were digested in collagenase and DNAse I for 1 hour at 37° C., passed through a […] screen, and analyzed by flow cytometry.", "data": [{"substance": "ODN 1826", "values": [{"measurement": "tumor growth suppression", "value": "improved the tumor growth suppression"}]}]}
